Reference: ChEMBL document CHEMBL3044724, “Differential efficacy of three commonly used pyrethroids against laboratory and field-collected larvae and adults of Helicoverpa zea (Lepidoptera: Noctuidae) and significance for pyrethroid resistance management” (2010)

Legend:
Assay type in all cases: functional
[1] = system: Helicoverpa zea; experiment: Insecticidal activity against adult of Helicoverpa zea (corn earworm) assessed as mortality per insecticide vial after 24 hr
[2] = system: Helicoverpa zea; experiment: Resistant ratio, ratio of LC90 for F1 generation of adult of Helicoverpa zea (corn earworm) to LC90 for adult of corn earworm
[3] = system: Helicoverpa zea; experiment: Resistant ratio, ratio of LC50 for F1 generation of third-instar of Helicoverpa zea (corn earworm) to LC50 for third-instar of corn earworm
[4] = system: Helicoverpa zea; experiment: Resistant ratio, ratio of LC50 for F1 generation of adult of Helicoverpa zea (corn earworm) to LC50 for adult of corn earworm
[5] = system: Helicoverpa zea; experiment: Insecticidal activity against F1 generation of adult of Helicoverpa zea (corn earworm) assessed as mortality per insecticide vial after 24 hr
[6] = system: Helicoverpa zea; experiment: Resistant ratio, ratio of LC90 for F1 generation of third-instar of Helicoverpa zea (corn earworm) to LC90 for third-instar of corn earworm
[7] = system: Helicoverpa zea; experiment: Insecticidal activity against F1 generation of third-instar of Helicoverpa zea (corn earworm) assessed as mortality per insecticide vial after 48 hr
[8] = system: Helicoverpa zea; experiment: Insecticidal activity against third-instar of Helicoverpa zea (corn earworm) assessed as mortality per insecticide vial after 48 hr

SMILES: CC(C)[C@H](C(=O)O[C@H](C#N)c1cccc(Oc2ccccc2)c1)c1ccc(Cl)cc1
- LC50 [1]: 0.49 µg
- LC90 [1]: 1.35 µg
- Ratio [2]: 4.37
- RatioLC50 [3]: 3.75
- RatioLC50 [4]: 4.67
- LC50 [5]: 2.3 µg
- LC90 [5]: 5.9 µg
- Ratio [6]: 3.17
- LC50 [7]: 1.51 µg
- LC90 [7]: 4.59 µg
- LC50 [8]: 0.4 µg
- LC90 [8]: 1.45 µg

SMILES: CC1(C)C(C=C(Cl)Cl)C1C(=O)OC(C#N)c1cccc(Oc2ccccc2)c1 (stereo not drawn) [ALPHA-CYPERMETHRIN]
- LC50 [1]: 0.7 µg
- LC90 [1]: 1.86 µg
- Ratio [2]: 3.82
- RatioLC50 [3]: 4.68
- RatioLC50 [4]: 4.16
- LC50 [5]: 2.89 µg
- LC90 [5]: 7.12 µg
- Ratio [6]: 6.28
- LC50 [7]: 1.71 µg
- LC90 [7]: 7.68 µg
- LC50 [8]: 0.37 µg
- LC90 [8]: 1.22 µg

SMILES: Cc1c(COC(=O)[C@@H]2[C@H](/C=C(\Cl)C(F)(F)F)C2(C)C)cccc1-c1ccccc1 [BIFENTHRIN]
- LC50 [1]: 0.17 µg
- LC90 [1]: 0.51 µg
- Ratio [2]: 5.9
- RatioLC50 [3]: 9.41
- RatioLC50 [4]: 9.28
- LC50 [5]: 1.54 µg
- LC90 [5]: 3.01 µg
- Ratio [6]: 15.22
- LC50 [7]: 1.25 µg
- LC90 [7]: 5.8 µg
- LC50 [8]: 0.13 µg
- LC90 [8]: 0.38 µg
